Consider two substances from PMC9403610, “Efficient screening of pancreatic lipase inhibitors from cod meat hydrolysate through ligand fishing strategy” (Frontiers in Nutrition, 2022).

Where no end group is shown, it is not given here.

In experiment [1] the target is T1, Porcine pancreatic lipase (PL) (Sus scrofa, UniProt P00591).
T1 construct: purchased Sigma Chemical Co. (St. Louis, MO, USA)
T1 sequence (P00591 1-450): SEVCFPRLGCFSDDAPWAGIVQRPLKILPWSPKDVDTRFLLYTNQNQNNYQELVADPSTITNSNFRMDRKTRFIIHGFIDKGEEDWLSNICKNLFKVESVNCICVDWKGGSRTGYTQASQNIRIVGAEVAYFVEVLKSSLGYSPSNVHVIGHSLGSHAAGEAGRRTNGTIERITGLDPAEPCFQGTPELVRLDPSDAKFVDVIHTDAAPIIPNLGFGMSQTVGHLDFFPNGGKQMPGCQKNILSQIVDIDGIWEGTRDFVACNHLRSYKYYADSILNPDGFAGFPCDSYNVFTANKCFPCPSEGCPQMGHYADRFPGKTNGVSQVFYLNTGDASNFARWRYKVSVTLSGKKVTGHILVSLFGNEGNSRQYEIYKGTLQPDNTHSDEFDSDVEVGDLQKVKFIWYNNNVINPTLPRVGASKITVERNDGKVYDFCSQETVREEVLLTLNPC
Description: Assay of PLIs kinetics (reversibility, Lineweaver-Burk plots). Particulars: from slope of Lineweaver-Burk plot vs. peptide concentration; read-out: Ki (competitive inhibition constant). The experiment is classed as biochemical. The protocol:
According to the method reported in the previous literature, with a slight modification, the type of inhibition of PL by active peptides was determined ([29], [30]). The peptide (0.8 mg/mL, final concentration) was reacted with different concentrations (0, 5, 10, 15, 20 mg/mL) of PL for 10 min, then 10 mM pNPB was added for 10 min. the absorbance of the reaction system at a wavelength of 405 nm was measured to determine the reversibility of the reaction. Next, the optimal PL concentration (5 mg/mL) and peptide (0, 0.8 mg/mL, final concentration) were fixed, and pNPB with different concentrations (1, 2, 3, 4, and 5 mM) was added to react for 10 min, a value was measured every 30 s, and the wavelength was 405 nm. The Lineweaver-Burk double reciprocal curve was used to determine the maximum velocity (Vmax) and Michaelis–Menten constant (Km). The slope and y-intercept of the Lineweaver-Burk plot vs. peptide concentration give a straight line with the intercepts on the horizontal axis as Ki (competitive inhibition constant) and K'i values (uncompetitive inhibition constant), respectively.

In experiment [2] the target is T1, Porcine pancreatic lipase (PL). Description: Pancreatic lipase inhibition assay (pNPB substrate, absorbance 405 nm). The experiment is classed as biochemical. Particulars: for IC50: pNPB substrate, Tris-HCl pH 7.5, 37°C. The protocol:
Grind small pieces of cod meat into surimi, add alkaline protease, and hydrolyze for 2 h. The enzyme was then inactivated by high temperature and centrifuged. Finally, the supernatant was spray dried to obtain cod peptide (CP). According to the method of Hou et al. ([28]), the PL inhibition test was carried out on the protein hydrolysates, its gel chromatography fraction, and the pure peptides. The sample and PL were dissolved in Tris-HCl buffer (pH = 7.5), and pNPB was dissolved in acetonitrile, and diluted with tris-HCl buffer. Add 100 μL of the sample, 200 μL of Tris-HCl buffer, 150 μL of PL (5 mg/mL) to a 1.5 mL EP tube, incubate at 37°C for 10 min, and then add 150 μL of […] pNPB, shake and mix, and incubate at 37°C for 10 min. After the reaction was completed, the absorbance value at 405 nm was measured with a multifunctional microplate reader, and the PL inhibitory activity was calculated according to the following equation: Inhibition rate (%) = 1- (absorbance in the presence of inhibitor/[…] in negative control) × 100%.

For orientation: Ki means a measure of affinity in units of concentration, obtained from inhibition or displacement. One may read the IC50 as the concentration that inhibits the measured activity by half. A higher IC50 goes with weaker potency in that assay. For the substance GSPPPSG [GSPPPSG], in experiment [1], the Ki turned out to be 4190 µM. In experiment [2], this substance gave an IC50 of 1000 µM.

For the substance KLEGDLK [KLEGDLK], in experiment [1], the Ki is 1400 µM. The IC50 in experiment [2] is 1350 µM. The remaining activity at 6000 µg/mL in experiment [2] (peptide concentration 6 mg/mL, read-out: residual activity on PL) was roughly 10%.
